Here are results for nine compounds from patent US11530208B2, “Imidazo[4,5-C]pyridine derived SSAO inhibitors” (PROXIMAGEN, LLC, priority 2014, dated 2022).

One may read the IC50 as the point on the concentration scale where inhibition reaches its midpoint.

The target in one series is human SSAO (Homo sapiens (Human), UniProt Q16853). Description: SSAO enzyme inhibition assay. Particulars: purified recombinantly expressed human SSAO, benzylamine substrate, RT. It is filed as biochemical. As for the experimental part: All primary assays were performed at RT. with purified recombinantly expressed human SSAO. Enzyme was prepared essentially as described in Öhman et al. (Protein Expression and Purification 46 (2006) 321-331). In addition, secondary- and selectivity assays were performed using SSAO prepared from various tissues or purified rat recombinant SSAO. The enzyme activity was assayed with benzylamine as substrate by measuring either benzaldehyde production, using ^14C-labeled substrate, or by utilizing the production of hydrogen peroxide in a horseradish peroxidase (HRP) coupled reaction. Briefly, test compounds were dissolved in dimethyl sulfoxide (DMSO) to a concentration of 10 mM. Dose-response measurements were assayed by either creating 1:10 serial dilutions in DMSO to produce a 7 point curve or by making 1:3 serial dilutions in DMSO to produce 11 point curves. The top concentrations were adjusted depending on the potency of the compounds and subsequent dilution in reaction buffer yielded a final DMSO concentration ≤2%.
In a horseradish peroxidase (HRP) coupled reaction, hydrogen peroxide oxidation of 10-acetyl-3,7-dihydroxyphenoxazine produced resorufin, which is a highly fluorescent compound (Zhout and Panchuk-Voloshina. Analytical Biochemistry 253 (1997) 169-174; Amplex® Red Hydrogen Peroxide/peroxidase Assay kit, Invitrogen A22188). Enzyme and compounds in 50 mM sodium phosphate, pH 7.4 were set to pre-incubate in flat-bottomed microtiter plates for approximately 15 min before initiating the reaction by addition of a mixture of HRP, benzylamine and Amplex reagent. Benzylamine concentration was fixed at a concentration corresponding to the Michaelis constant, determined using standard procedures. Fluorescence intensity was then measured at several time points during 1-2 h, exciting at 544 nm and reading the emission at 590 nm. For the human SSAO assay final concentrations of the reagents in the assay wells were: SSAO enzyme 1 ug/mL, benzylamine 100 uM, Amplex reagent 20 uM, HRP 0.1 U/mL and varying concentrations of test compound. The inhibition was measured as % decrease of the signal compared to a control without inhibitor (only diluted DMSO). The background signal from a sample containing no SSAO enzyme was subtracted from all data points. Data was fitted to a four parameter logistic model and IC50 values were calculated using the GraphPad Prism 4 or XLfit 4 programs.
SSAO activity was assayed using 14C-labeled benzylamine and analysed by measuring radioactive benzaldehyde. In a white 96-well optiplate (Packard), 20 uL of diluted test compound was pre-incubated at RT with 20 uL SSAO enzyme for approximately 15 min with continuous agitation. All dilutions were made with PBS. The reaction was initiated by adding 20 uL of the benzylamine substrate solution containing [7-14C] Benzylamine hydrochloride (CFA589, GE Healthcare). The plate was incubated for 1 h as above after which the reaction was stopped by acidification (10 uL 1M aq HCl). Then 90 uL Micro Scint-E solution (Perkin-Elmer) was added to each well and the plate was continuously mixed for 15 min. Phase separation occurred instantly and activity was read in a Topcount scintillation counter (Perkin-Elmer). In the final reaction well, the human recombinant SSAO concentration was 10 ug/mL. In order to optimize sensitivity, the substrate concentration was decreased as compared to the HRP coupled assay in order to get a higher fraction of radioactive product. In the human SSAO assay, benzylamine concentration was 40 uM (0.2 uCi/mL). Data was analysed as above.

The target of series [1] is human ether a go-go related gene (hERG) K+ channel (Homo sapiens (Human), UniProt Q12809). Kind of series: hERG assay, IonWorks patch clamp electrophysiology. In kind it is cell-based. Particulars: Chinese Hamster Lung cell line stably expressing hERG, max concentration 11 uM. As for the experimental part:
Compounds of the invention were tested for inhibition of the human ether a go-go related gene (hERG) K^+ channel using IonWorks patch clamp electrophysiology. 8 Point concentration-response curves were generated on two occasions using 3-fold serial dilutions from the maximum assay concentration (11 uM). Electrophysiological recordings were made from a Chinese Hamster Lung cell line stably expressing the full length hERG channel. Single cell ion currents were measured in the perforated patch clamp configuration (100 ug/mL amphoterocin) at RT using an IonWorks Quattro instrument. The internal solution contained 140 mM KCl, 1 mM MgCl2, 1 mM EGTA and 20 mM HEPES and was buffered to pH 7.3. The external solution contained 138 mM NaCl, 2.7 mM KCl, 0.9 mM CaCl2, 0.5 mM MgCl2, 8 mM Na2HPO4 and 1.5 mM KH2PO4, and was buffered to pH 7.3. Cells were clamped at a holding potential of […] for 30 s and then stepped to +40 mV for 1 s. This was followed by a hyperpolarising step of 1 s to […] to evoke the hERG tail current. This sequence was repeated 5 times at a frequency of 0.25 Hz. Currents were measured from the tail step at the 5th pulse, and referenced to the holding current. Compounds were incubated for 6-7 min prior to a second measurement of the hERG signal using an identical pulse train. A minimum of 17 cells were required for each pIC50 curve fit. […]
(In general: Block of hERG is tested as a sign of cardiac risk.)

human SSAO, sequence (Q16853 29-763): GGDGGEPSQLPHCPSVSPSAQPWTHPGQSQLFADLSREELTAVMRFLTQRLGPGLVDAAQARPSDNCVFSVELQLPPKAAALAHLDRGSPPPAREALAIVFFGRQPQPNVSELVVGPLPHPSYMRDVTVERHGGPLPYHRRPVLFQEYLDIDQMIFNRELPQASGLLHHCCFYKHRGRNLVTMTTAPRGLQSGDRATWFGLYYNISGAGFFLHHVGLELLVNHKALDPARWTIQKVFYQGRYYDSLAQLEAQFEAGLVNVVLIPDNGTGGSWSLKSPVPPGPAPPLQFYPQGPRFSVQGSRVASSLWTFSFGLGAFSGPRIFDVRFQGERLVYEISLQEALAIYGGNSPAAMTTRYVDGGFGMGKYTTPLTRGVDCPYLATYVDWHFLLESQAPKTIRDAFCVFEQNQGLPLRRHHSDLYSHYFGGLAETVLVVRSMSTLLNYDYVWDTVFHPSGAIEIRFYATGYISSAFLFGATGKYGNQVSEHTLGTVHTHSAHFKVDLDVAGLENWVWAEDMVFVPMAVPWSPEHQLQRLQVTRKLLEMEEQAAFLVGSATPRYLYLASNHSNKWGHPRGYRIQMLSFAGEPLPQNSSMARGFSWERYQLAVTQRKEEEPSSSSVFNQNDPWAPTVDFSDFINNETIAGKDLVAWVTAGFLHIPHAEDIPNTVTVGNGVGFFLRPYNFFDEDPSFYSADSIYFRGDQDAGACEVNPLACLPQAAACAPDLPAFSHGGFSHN
human ether a go-go related gene (hERG) K+ channel, sequence (Q12809 whole entry): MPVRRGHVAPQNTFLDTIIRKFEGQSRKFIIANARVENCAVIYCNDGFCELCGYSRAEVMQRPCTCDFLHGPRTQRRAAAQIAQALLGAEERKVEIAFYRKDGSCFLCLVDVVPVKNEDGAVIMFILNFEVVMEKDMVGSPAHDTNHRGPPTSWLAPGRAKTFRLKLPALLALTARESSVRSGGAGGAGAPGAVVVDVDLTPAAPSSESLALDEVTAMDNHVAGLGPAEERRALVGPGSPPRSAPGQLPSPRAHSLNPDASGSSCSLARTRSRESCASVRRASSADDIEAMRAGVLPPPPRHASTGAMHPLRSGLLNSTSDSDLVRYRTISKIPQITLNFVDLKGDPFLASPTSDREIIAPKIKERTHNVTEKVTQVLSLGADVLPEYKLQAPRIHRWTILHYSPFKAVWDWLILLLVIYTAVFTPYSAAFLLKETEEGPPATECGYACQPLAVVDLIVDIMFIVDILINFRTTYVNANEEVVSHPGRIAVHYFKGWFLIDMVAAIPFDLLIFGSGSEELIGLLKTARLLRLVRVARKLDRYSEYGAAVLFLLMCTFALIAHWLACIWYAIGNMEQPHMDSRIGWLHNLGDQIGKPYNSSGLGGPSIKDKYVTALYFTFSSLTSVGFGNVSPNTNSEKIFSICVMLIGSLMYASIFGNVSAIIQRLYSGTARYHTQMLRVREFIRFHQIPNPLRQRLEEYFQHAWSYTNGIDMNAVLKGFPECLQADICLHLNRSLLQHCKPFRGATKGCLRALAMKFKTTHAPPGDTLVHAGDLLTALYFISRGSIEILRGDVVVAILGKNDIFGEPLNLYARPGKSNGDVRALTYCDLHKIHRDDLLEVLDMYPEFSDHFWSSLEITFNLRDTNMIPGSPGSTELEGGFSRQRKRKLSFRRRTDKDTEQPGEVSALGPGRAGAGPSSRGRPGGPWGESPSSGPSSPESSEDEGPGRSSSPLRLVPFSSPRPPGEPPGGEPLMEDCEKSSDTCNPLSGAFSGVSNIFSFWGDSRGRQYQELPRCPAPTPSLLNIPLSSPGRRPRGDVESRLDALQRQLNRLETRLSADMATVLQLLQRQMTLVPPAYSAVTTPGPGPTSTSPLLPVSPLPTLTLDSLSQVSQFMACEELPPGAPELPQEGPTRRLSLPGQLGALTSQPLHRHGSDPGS

Regarding `O=c1cc(N2CCC(c3nc4ccncc4n3-c3ccc(Cl)cc3)CC2)nc[nH]1` [Example 6, 6-{4-[3-(4-Chlorophenyl)-3H-imidazo[4,5-c]pyridin-2-yl]piperidin-1-yl}-3,4-dihydropyrimidin-4-one], on human SSAO, the IC50 is 200 to 500 nM. Regarding `O=C(NCC1CCOCC1)c1nc2ccncc2n1-c1ccc(F)cc1` [Example 9, 3-(4-Fluorophenyl)-N-(oxan-4-ylmethyl)-3H-imidazo[4,5-c]pyridine-2-carboxamide], the IC50 at human SSAO is 200 to 500 nM.

In the case of `Cc1ccc(-n2c(-c3cnc(NCC(C)(C)O)nc3)nc3ccncc32)cc1` [Example 4, 2-Methyl-1-({5-[3-(4-methylphenyl)-3H-imidazo[4,5-c]pyridin-2-yl]pyrimidin-2-yl}amino)propan-2-ol], the IC50 on human SSAO was below 50 nM. With `Fc1ccc(-n2c(-c3ccc4nc[nH]c4c3)nc3ccncc32)cc1` [Example 2, 5-[3-(4-Fluorophenyl)-3H-imidazo[4,5-c]pyridin-2-yl]-1H-1,3-benzodiazole], on human SSAO, the IC50 was in the range of 200 to 500 nM. Take `Clc1ccc(-n2c(C3CCN(c4ccncc4)CC3)nc3ccncc32)cc1` [Example 5, 4-{4-[3-(4-Chlorophenyl)-3H-imidazo[4,5-c]pyridin-2-yl]piperidin-1-yl}pyridine; bis(formic acid)]: the IC50 at human SSAO is below 50 nM; in series [1] it was 10 to 1000 nM.

Consider `Clc1ccc(-n2c(Cc3cccnc3)nc3ccncc32)cc1` [Example 7, 3-{[3-(4-Chlorophenyl)-3H-imidazo[4,5-c]pyridin-2-yl]methyl}pyridine; bis(formic acid)], for which the IC50 on human SSAO lay within 200 to 500 nM. Same read-out and setting: with `O=C1Cc2cc(-c3nc4ccncc4n3-c3ccc(F)cc3)ccc2N1` [Example 1, 5-[3-(4-Fluorophenyl)-3H-imidazo[4,5-c]pyridin-2-yl]-2,3-dihydro-1H-indol-2-one] the figure was 50 to 200 nM; with `Clc1ccc(-n2c(CCCn3ccnc3)nc3ccncc32)cc1` [Example 8, 1-{3-[3-(4-chlorophenyl)-3H-imidazo[4,5-c]pyridin-2-yl]propyl}-1H-imidazole], 200 to 500 nM. With `CC(C)(O)CNc1ncc(-c2nc3ccncc3n2-c2ccc(F)cc2)cn1` [Example 3, 1-({5-[3-(4-Fluorophenyl)-3H-imidazo[4,5-c]pyridin-2-yl]pyrimidin-2-yl}amino)-2-methylpropan-2-ol], the IC50 on human SSAO was below 50 nM; in series [1] it was above 10000 nM.
